The target in one experiment is IKZF2 (Helios) (Homo sapiens (Human), UniProt Q96SW2+Q9UKS7). The experiment in a line: IKZF2 reporter degradation assay (HEK 293T IKZF2-mNeonGreen reporter cell line). Format: cell-based. Conditions: 24 hour incubation; for inhibition at 1 µM: HEK-293T, 24 h. An excerpt:
(§1) Polycistronic plasmids were constructed for the mammalian expression of fluorescent reporter fusions of human transcription factors IKZF1 (Ikaros), IKZF2 (Helios), and IKZF3 (Aiolos). The respective protein sequences had their C-terminal end joined to a GGGGS linker repeated three times followed by mNeonGreen, P2A sequence, and mScarlet. The DNA sequences of the open reading frames are as follows:
(§2) IKZF1, IKZF2, and IKZF3 constructs were cloned into the UCOE Hygromycin expression vectors (Millipore Sigma). Reporter constructs were transfected using cationic lipid reagents into adherent HEK 293T cells and stable integrants were selected by treatment with 200 μg/mL hygromycin B. Clonal populations were obtained from the population of stable integrants either by limiting dilution or fluorescence activated cell sorting.
(§3) The clonal stable cell lines were maintained under constant 200 μg/mL hygromycin B selection while being passaged for use in the degradation assays. […] The fluorescence intensity of the IKZF1/2/3-mNeonGreen (FITC channel) and mScarlet (PE channel) reporters were routinely analyzed by flow cytometry to confirm consistent expression levels between experiments.
(§4) The IKZF1/IKZF2/IKZF3 degradation assays were carried out by harvesting the HEK 293T reporter cell lines and resuspending the cells in media formulated for reduced background fluorescence (FluoroBrite; Thermo Fisher). The respective cell lines were seeded at a density of 4000 cells/well into black-walled 384-well optical grade assay tissue culture plates. The cells were incubated overnight at 37° C. to allow for attachment to the assay plate. Dilutions of the compounds were prepared in DMSO from 10 mM compound stocks. The assay plates were treated with appropriate concentrations of the compounds by dispensing the DMSO dilutions in quadruplicate wells with an upper limit of 0.5% final DMSO.
(§5) After 24 hour incubation with the compounds, the assay plates were imaged on an ImageXpress Pico microscopy system (cells maintained at 37° C. during imaging) to obtain the fluorescent readouts. The assay plates were imaged in the FITC and Tetramethylrhodamine (TRITC) channels to obtain the mNeonGreen fluorescence intensity (reporter degradation data) and mScarlet fluorescence intensity (for cell segmentation). 293T-IKZF1 and 293T-IKZF3 reporter cell lines were imaged with exposures of 500 milliseconds (ms) for both FITC and TRITC channels, while the 293T-IKZF2 reporter cell line was imaged with exposures of 1000 ms for FITC and 1250 ms for TRITC. The resulting data was analyzed with Cell Reporter Xpress software using the 2-channel cell scoring analysis with a “percent positive” readout. The TRITC channel was selected for the “nuclei” segmentation with a threshold of 20 while the FITC channel was selected for the “Marker 1” segmentation and a threshold of 100 for the IKZF and IKZF3 reporter lines. […] The minimum segmentation width was set to 6 micrometers and the maximum segmentation width was set to 15 micrometers for all cell lines. The DC50 calculations were determined by regression to best fit four-parameter logistic curves using GraphPad Prism.

Experiment [1] addresses human E3 ligase component cereblon (CRBN) (Homo sapiens (Human), UniProt Q96SW2). Nature of the experiment: Cereblon (CRBN) target engagement, NanoBRET TE Intracellular E3 Ligase Assay in transfected HEK-293T cells. As for the experimental part: HEK-293T cells were harvested ca. 75% confluent with trypsin and plated (500,000 cells/well) in a 6-well tissue culture plate in 2 mL of Dulbecco's Modified Eagle Medium (DMEM)^+10% Fetal Bovine Serum (FBS) and incubated overnight at 37° C.
The NanoLue-CRBN fusion vector (Nluc-CRBN; Promega) contains the coding region of human E3 ligase component cereblon (CRBN) fused to the C-terminus of the NanoLuc luciferase coding region. A mixture of 10 ng Nluc-CRBN and 990 ng DDB1 Expression Vector (Promega) was added to 125 μL Opti-Minimum Essential Medium (Opti-MEM™; Thermo Fisher) along with 2 μL P3000 reagent (Thermo Fisher) in a 1.5 mL epppendorf tube. This solution was added to Lipofectamine 3000 transfection reagent (5 μL; Thermo Fisher) in Opti-MEM (125 μL), mixed well, and incubated for 15 minutes at room temperature. The transfection mixture was added dropwise to cells and incubated overnight at 37° C., 5% CO2. Following transfection, cells were washed once with PBS, and trypsin (250 μL) was added and incubated 30-45 see to dislodge cells. Complete media (2 mL) was added to resuspend cells to form a single cell suspension. Cells were centrifuged at 320×g for 5 min at room temperature, the supernatant was removed, and the cell pellet resuspended in Opti-MEM (3 mL; wash step repeated ×2). After final resuspension in 5 mL Opti-MEM, cells were counted and resuspended at 200,000 cells/mL in Opti-MEM.
Cereblon target engagement was monitored by Bioluminescence Resonance Energy Transfer (BRET) in transfected HEK-293T cells using the NanoBRET TE Intracellular E3 Ligase Assay (Promega). Briefly, 384-well plates (white opaque plates, Corning 3574, low binding surface) were seeded with transfected HEK-293T cells (38 μl/well). 2 μL of 10 μM CRBN tracer (diluted 1:5 in Tracer Dilution Buffer) was added to each well. Plates were centrifuged at 320×g for 1 min at room temperature. […] Plates were shaken for 2 minutes on a microplate shaker to mix compounds. Plates were centrifuged at 320×g for 1 min at room temperature, and subsequently incubated for 2 hours at 37° C.
After incubation, plates were allowed to cool to room temperature for 15 minutes. 20 μL of 3X Complete NanoBRET™ Nano-Glo® Substrate plus Inhibitor Solution (Promega, 1:166 Substrate and 1:500 dilution of Extracellular NanoLuc® Inhibitor diluted in Opti-MEM) were added to each well, Plates were incubated with shaking at room temperature for 3 minutes covered with foil. Plates were read on a CLARIOstar microplate reader (BMG LabTech), measuring at 450 nm (donor emission) and 610 nm (acceptor emission). The IC50 values were determined by regression to best fit four-parameter logistic curves using GraphPad Prism.

The next experiment has as its target IKZF1 (Ikaros) (Homo sapiens (Human), UniProt Q13422+Q96SW2). The experiment in a line: IKZF1 reporter degradation assay (HEK 293T IKZF1-mNeonGreen reporter cell line). Conditions: HEK 293T reporter cells, 24 hour incubation. Format: cell-based.
From the text: as §1, §2, §3, §4, §5

For another experiment, the target named is IKZF3 (Aiolos) (Homo sapiens (Human), UniProt Q96SW2+Q9UKT9). Nature of the experiment: IKZF3 reporter degradation assay (HEK 293T IKZF3-mNeonGreen reporter cell line). Type of experiment: cell-based. The note with it: HEK 293T reporter cells, 24 hour incubation.
IKZF3 (Aiolos), sequence (Q9UKT9 whole entry): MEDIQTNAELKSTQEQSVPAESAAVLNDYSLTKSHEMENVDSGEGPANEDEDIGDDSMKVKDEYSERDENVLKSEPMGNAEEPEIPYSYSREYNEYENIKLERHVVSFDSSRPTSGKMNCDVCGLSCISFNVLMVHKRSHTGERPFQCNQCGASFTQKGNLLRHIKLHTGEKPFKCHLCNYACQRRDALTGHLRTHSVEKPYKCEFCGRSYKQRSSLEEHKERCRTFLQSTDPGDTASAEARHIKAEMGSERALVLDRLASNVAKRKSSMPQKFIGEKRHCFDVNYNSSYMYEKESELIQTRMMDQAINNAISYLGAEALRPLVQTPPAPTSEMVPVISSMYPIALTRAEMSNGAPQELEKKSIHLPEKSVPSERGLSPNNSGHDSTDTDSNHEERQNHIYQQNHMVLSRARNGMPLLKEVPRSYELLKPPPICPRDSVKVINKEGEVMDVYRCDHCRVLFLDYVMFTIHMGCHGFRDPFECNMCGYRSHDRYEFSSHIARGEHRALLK
IKZF3 (Aiolos), sequence (Q96SW2 whole entry): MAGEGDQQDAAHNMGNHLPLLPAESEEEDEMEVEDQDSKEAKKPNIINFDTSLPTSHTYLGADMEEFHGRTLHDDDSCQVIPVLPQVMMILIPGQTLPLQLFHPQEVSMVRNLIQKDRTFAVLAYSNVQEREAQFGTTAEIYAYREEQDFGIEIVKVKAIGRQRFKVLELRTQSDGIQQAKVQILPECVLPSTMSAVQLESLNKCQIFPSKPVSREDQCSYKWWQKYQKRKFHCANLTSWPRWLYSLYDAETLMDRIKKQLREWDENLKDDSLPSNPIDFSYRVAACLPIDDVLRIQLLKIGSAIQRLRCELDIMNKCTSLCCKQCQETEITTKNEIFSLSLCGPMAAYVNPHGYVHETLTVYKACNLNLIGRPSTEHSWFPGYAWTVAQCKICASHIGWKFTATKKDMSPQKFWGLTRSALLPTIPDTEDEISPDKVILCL
IKZF3 (Aiolos), sequence (Q16531 whole entry partner): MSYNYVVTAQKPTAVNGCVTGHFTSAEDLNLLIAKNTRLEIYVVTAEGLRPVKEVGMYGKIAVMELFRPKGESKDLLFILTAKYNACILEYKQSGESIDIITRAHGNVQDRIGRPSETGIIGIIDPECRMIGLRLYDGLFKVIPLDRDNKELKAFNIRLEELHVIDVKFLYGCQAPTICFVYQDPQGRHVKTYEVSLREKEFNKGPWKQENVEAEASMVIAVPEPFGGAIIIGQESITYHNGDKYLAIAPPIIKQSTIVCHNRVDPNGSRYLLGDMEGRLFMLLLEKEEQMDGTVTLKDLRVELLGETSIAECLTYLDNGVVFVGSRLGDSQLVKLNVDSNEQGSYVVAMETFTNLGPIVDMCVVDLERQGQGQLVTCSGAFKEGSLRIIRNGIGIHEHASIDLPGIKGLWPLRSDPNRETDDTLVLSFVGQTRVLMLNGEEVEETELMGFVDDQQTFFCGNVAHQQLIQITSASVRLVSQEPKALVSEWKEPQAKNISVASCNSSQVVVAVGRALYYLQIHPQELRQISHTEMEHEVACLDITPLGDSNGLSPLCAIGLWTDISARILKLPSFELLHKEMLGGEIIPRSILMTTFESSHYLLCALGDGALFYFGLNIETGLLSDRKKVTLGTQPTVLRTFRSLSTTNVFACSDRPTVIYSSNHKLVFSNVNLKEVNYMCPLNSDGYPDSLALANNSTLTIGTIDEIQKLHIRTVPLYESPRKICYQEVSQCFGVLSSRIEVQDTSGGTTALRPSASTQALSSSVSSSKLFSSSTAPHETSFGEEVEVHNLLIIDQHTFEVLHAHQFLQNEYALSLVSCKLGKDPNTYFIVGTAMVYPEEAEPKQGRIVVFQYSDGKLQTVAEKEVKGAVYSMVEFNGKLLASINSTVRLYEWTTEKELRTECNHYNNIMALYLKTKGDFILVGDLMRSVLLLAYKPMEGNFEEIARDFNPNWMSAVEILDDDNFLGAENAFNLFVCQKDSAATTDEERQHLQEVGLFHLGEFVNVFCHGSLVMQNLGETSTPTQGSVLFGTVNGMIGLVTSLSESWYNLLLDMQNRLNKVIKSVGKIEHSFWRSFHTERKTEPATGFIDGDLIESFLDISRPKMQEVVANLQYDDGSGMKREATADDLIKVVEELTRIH
From the text: as §1, §2, §3, §4, §5

Another experiment concerns the target GSPT1 (Homo sapiens (Human), UniProt P15170+Q96SW2). Nature of the experiment: GSPT1 reporter degradation assay (HEK293 hGSPT1 HiBiT-tagged cells). Format: cell-based. Conditions: 24 hour incubation. As for the experimental part: HEK293_hGSPT1_HiBiT-tagged cells were generated using CRISPR-Cas12a technology. Briefly, ˜400,000 HEK293 cells were transiently co-transfected with precomplexed ribonuclear proteins (RNPs) consisting of […] of crRNA (IDT), […] of Cas12a protein (IDT), 3 μg of ssODN donor (IDT; AltRTM modifications), 78 pmol of electroporation enhancer (IDT), and 200 ng of pMaxGFP (Lonza). The transfection was performed via nucleofection (Lonza, 4D-Nucleofector X-unit) using solution P3 and program CM-130 in a (20 μL) cuvette. Five days post-nucleofection, cells were single-cell-sorted for GFP+ (transfected) cells by FACs in 96-well plates and clonally selected. Clones were screened and verified for the desired modification via targeted deep sequencing using gene-specific primers with partial Illumina adapter overhangs as previously described. In brief, clonal cell pellets were harvested, lysed, and used to generate gene-specific amplicons with partial Illumina adapters in PCR #1. Amplicons were indexed in PCR #2 and pooled with other targeted amplicons for other loci to create sequence diversity. Additionally, 10% PhiX sequencing control V3 (Illumina) was added to the pooled amplicon library prior to running the sample on a Miseq Sequencer System (Illumina) to generate paired 2×250 bp reads. Samples were demultiplexed using the index sequences, fastq files were generated, and NGS analysis was performed using CRIS.py.
The GSTP1 degradation assay was carried out by harvesting the HEK 293T reporter cell lines and resuspending the cells in media formulated for reduced background fluorescence (FluoroBrite; Thermo Fisher). The respective cell lines were seeded at a density of 8,000 cells/well into white-opaque 384-well optical grade assay tissue culture plates (Greiner 781080-20). The cells were incubated overnight at 37° C. to allow for attachment to the assay plate. Dilutions of the compounds were prepared in DMSO from 10 mM compound stocks. […] Plates were centrifuged at 320×g for 2 minutes at room temperature, and subsequently incubated at 37° C.
After 24 hour incubation with the compounds, the plates were allowed to cool to room temperature for 10 minutes. 30 μL of HiBiT lytic buffer+1:50 HiBiT substrate Solution were added to each well. Plates were centrifuged at 320×g for 2 minutes at room temperature and then incubated with shaking at room temperature for 10 minutes covered with foil. Plates were read on a CLARIOstar microplate reader (BMG LabTech), measuring at 450 nm (donor emission) and 610 nm or 630 nm (acceptor emission). The DC50 values were determined by regression to best fit four-parameter logistic curves using GraphPad Prism.
A general note: The HiBiT peptide binds its large partner to form an active luciferase.

The mark [2] stands for this setting: Table 3, HEK 293T reporter cells.
[3] abbreviates: second (untitled) table after Table 3.
Where [4] appears, read: Table 3, 2 hours at 37° C., read-out: CRBN Binding EC50.
Setting [5] is: second (untitled) table after Table 3, read-out: CRBN Binding EC50.

Molecules are shown by their SMILES. Like-named read-outs stand apart in the source and are kept apart here.

The inhibition is how much of the control response was suppressed. The low end stands for little suppression, the high end for strong suppression. One may read the EC50 as the concentration giving half of the maximal effect. Broadly, the DC50 is the concentration at which degradation of the target reaches its halfway point. A higher DC50 goes with degradation only at high concentration.

human E3 ligase component cereblon (CRBN), sequence (Q96SW2 whole entry, the tested form may be a part): as the sequence (Q96SW2 whole entry) above
human E3 ligase component cereblon (CRBN), sequence (Q16531 whole entry partner, the tested form may be a part): as the sequence (Q16531 whole entry partner) above
IKZF2 (Helios), sequence (Q9UKS7 whole entry, the tested form may be a part): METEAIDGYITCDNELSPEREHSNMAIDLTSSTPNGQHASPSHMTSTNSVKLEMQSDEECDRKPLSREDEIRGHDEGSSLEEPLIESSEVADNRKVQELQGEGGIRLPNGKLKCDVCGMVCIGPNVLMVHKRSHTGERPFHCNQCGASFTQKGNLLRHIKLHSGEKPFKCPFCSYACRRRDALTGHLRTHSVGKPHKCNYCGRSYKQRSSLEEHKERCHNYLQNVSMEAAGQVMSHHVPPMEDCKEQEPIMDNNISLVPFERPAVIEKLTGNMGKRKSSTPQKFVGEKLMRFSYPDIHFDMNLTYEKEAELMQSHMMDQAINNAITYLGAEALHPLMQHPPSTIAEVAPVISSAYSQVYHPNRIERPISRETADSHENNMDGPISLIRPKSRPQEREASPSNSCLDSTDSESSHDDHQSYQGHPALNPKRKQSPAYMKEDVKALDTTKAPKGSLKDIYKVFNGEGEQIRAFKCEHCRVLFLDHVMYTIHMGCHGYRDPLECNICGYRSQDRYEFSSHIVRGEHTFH
IKZF2 (Helios), sequence (Q96SW2 whole entry, the tested form may be a part): as the sequence (Q96SW2 whole entry) above
IKZF2 (Helios), sequence (Q16531 whole entry partner, the tested form may be a part): as the sequence (Q16531 whole entry partner) above
IKZF1 (Ikaros), sequence (Q13422 whole entry): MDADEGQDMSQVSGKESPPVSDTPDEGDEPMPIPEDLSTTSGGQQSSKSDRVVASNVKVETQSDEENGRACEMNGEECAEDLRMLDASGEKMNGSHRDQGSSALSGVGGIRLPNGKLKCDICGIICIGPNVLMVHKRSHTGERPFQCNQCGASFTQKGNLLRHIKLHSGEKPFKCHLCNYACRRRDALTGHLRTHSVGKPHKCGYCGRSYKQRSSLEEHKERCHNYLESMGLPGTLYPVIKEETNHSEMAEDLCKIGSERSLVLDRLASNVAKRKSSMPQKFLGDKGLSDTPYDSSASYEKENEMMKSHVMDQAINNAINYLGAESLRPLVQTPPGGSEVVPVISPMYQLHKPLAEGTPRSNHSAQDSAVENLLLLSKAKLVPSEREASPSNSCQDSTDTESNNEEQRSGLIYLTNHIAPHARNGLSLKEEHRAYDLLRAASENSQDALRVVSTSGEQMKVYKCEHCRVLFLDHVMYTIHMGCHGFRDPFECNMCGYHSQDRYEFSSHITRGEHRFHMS
IKZF1 (Ikaros), sequence (Q96SW2 whole entry): as the sequence (Q96SW2 whole entry) above
IKZF1 (Ikaros), sequence (Q16531 whole entry partner): as the sequence (Q16531 whole entry partner) above
GSPT1, sequence (P15170 whole entry): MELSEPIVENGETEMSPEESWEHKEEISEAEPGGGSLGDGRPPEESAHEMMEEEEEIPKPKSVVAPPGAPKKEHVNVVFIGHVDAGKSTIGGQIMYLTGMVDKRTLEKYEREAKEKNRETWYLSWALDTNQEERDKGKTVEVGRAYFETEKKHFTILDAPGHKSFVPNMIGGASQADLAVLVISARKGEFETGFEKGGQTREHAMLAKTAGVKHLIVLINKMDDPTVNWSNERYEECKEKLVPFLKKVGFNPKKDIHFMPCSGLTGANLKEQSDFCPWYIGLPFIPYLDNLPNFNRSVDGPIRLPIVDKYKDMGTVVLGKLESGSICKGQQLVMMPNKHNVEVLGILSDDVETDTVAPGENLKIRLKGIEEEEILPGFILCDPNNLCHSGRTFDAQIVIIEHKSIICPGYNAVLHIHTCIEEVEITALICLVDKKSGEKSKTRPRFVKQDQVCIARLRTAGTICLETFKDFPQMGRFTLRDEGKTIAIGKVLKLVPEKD
GSPT1, sequence (Q96SW2 whole entry): as the sequence (Q96SW2 whole entry) above
GSPT1, sequence (Q16531 whole entry partner): as the sequence (Q16531 whole entry partner) above

On IKZF2 (Helios) (setting [2]), `COC1CCC(C2CN([C@H]3CCCC[C@@H]3Oc3ccc4c(c3)CN(C3CCC(=O)NC3=O)C4=O)C2)CC1` (stereo partly drawn) [Compound 7, 3-(5-(((1S,2S)-2-(3-((cis)-4-methoxycyclohexyl)azetidin-1-yl)cyclohexyl)oxy)-1-oxoisoindolin-2-yl)piperidine-2,6-dione] displayed an inhibition at 1 µM of 80.1%. Further, at IKZF2 (Helios) (setting [3]), the “IKZF2% Degradation @ 1 μM” value is on record as 80.1%.

For `COC1CCC(C2CN([C@H]3CCCC[C@@H]3Oc3ccc4c(c3)CN(C3CCC(=O)NC3=O)C4=O)C2)CC1` (stereo partly drawn) [Compound 8, 3-(5-(((1S,2S)-2-(3-((trans)-4-methoxycyclohexyl)azetidin-1-yl)cyclohexyl)oxy)-1-oxoisoindolin-2-yl)piperidine-2,6-dione], testing at 1 µM against IKZF2 (Helios) (setting [3]) gave an inhibition of 80.1%. Further, on IKZF2 (Helios) (setting [2]), the “IKZF2% Degradation @ 1 μM” value is reported as 80.1%.

For the compound `COC1CCC(C2CN([C@H]3CCC[C@@H]3Oc3ccc4c(c3)CN(C3CCC(=O)NC3=O)C4=O)C2)CC1` (stereo partly drawn) [Compound 9, 3-(5-(((1S,2S)-2-(3-((cis)-4-methoxycyclohexyl)azetidin-1-yl)cyclopentyl)oxy)-1-oxoisoindolin-2-yl)piperidine-2,6-dione], the inhibition at 1 µM on IKZF2 (Helios) (setting [2]) and against IKZF2 (Helios) (setting [3]) was 77.7% throughout.

On to `COC1CCC(C2CN([C@H]3CCC[C@@H]3Oc3ccc4c(c3)CN(C3CCC(=O)NC3=O)C4=O)C2)CC1` (stereo partly drawn) [Compound 10, 3-(5-(((1S,2S)-2-(3-((trans)-4-methoxycyclohexyl)azetidin-1-yl)cyclopentyl)oxy)-1-oxoisoindolin-2-yl)piperidine-2,6-dione], for which the “IKZF2% Degradation @ 1 μM” value at IKZF2 (Helios) (setting [2]) and on IKZF2 (Helios) (setting [3]) was 80.8% throughout.

In the case of `COC1CCC(C2CN([C@H]3CCCC[C@@H]3Oc3ccc4c(c3)CN(C35CC(C3)C(=O)NC5=O)C4=O)C2)CC1` (stereo partly drawn) [Compound 11, 1-(5-(((1S,2S)-2-(3-((cis)-4-methoxycyclohexyl)azetidin-1-yl)cyclohexyl)oxy)-1-oxoisoindolin-2-yl)-3-azabicyclo[3.1.1]heptane-2,4-dione], the EC50 in experiment [1] (setting [4]) and in experiment [1] (setting [5]) was over 10 µM each time.

Turning to `COC1CCC(C2CN([C@H]3CCC[C@@H]3Oc3ccc4c(c3)CN(C35CC(C3)C(=O)NC5=O)C4=O)C2)CC1` (stereo partly drawn) [Compound 12, 1-(5-(((1S,2S)-2-(3-((cis)-4-methoxycyclohexyl)azetidin-1-yl)cyclopentyl)oxy)-1-oxoisoindolin-2-yl)-3-azabicyclo[3.1.1]heptane-2,4-dione], the concentration giving a half-maximal response (EC50) in experiment [1] (setting [4]) and in experiment [1] (setting [5]) was over 10 µM in each case.

For the compound `O=C1NC(=O)C2(N3Cc4cc(O[C@H]5CCC[C@@H]5N5CC(C6CCC(F)(F)CC6)C5)ccc4C3=O)CC1C2` [Compound 14, 1-(5-(((1S,2S)-2-(3-(4,4-difluorocyclohexyl)azetidin-1-yl)cyclopentyl)oxy)-1-oxoisoindolin-2-yl)-3-azabicyclo[3.1.1]heptane-2,4-dione], the EC50 in experiment [1] (setting [4]) and in experiment [1] (setting [5]) was over 10 µM throughout.

`O=C1NC(=O)C2(N3Cc4cc(O[C@H]5CCCC[C@@H]5N5CC(C6CCC(F)(F)CC6)C5)ccc4C3=O)CC1C2` [Compound 15, 1-(5-(((1S,2S)-2-(3-(4,4-difluorocyclohexyl)azetidin-1-yl)cyclohexyl)oxy)-1-oxoisoindolin-2-yl)-3-azabicyclo[3.1.1]heptane-2,4-dione]: the EC50 in experiment [1] (setting [4]) and in experiment [1] (setting [5]) was 6.21 µM in each case.

As for `N#CC1(C2CN([C@H]3CCCC[C@@H]3Oc3ccc4c(c3)CN(C3CCC(=O)NC3=O)C4=O)C2)CCC1` (stereo partly drawn) [Compound 23, 1-(1-((1S,2S)-2-((2-(2,6-dioxopiperidin-3-yl)-1-oxoisoindolin-5-yl)oxy)cyclohexyl)azetidin-3-yl)cyclobutane-1-carbonitrile], the DC50 on IKZF1 (Ikaros) was over 30 µM; at IKZF2 (Helios) (HEK 293T reporter cells) it was 0.003 µM; at IKZF3 (Aiolos) it was over 30 µM; on GSPT1, over 30 µM. Besides, the inhibition at 1 µM against IKZF2 (Helios) (setting [2]) and at IKZF2 (Helios) (setting [3]) was 87.4% each time.

The record behind these values is US20240287037A1, “CYCLOALKYL COMPOUNDS AND PHARMACEUTICAL COMPOSITIONS THAT MODULATE IKZF2” (Plexium, Inc., priority 2021, published 2024).
